From ChEMBL document CHEMBL5344413, “Discovery of 4-(1,2,4-Oxadiazol-5-yl)azepan-2-one Derivatives as a New Class of Cannabinoid Type 2 Receptor Agonists for the Treatment of Inflammatory Pain” (J Med Chem, 2023) come the findings set out here.

Experiment [1] concerns the target T1, Cannabinoid receptor 2 (Homo sapiens, UniProt P34972). Description: Agonist activity at human CB2 receptor expressed in CHO cells assessed as inhibition of forskolin-stimulated intracellular cAMP accumulation measured after 30 mins by Glosensor assay. The format is functional, cell-based. In general terms: cAMP levels reflect the balance of adenylyl cyclase and phosphodiesterase activity.

Experiment [2] deals with T2, Cannabinoid receptor 1 (Homo sapiens, UniProt P21554). Description: Agonist activity at human CB1 receptor expressed in CHO cells assessed as inhibition of forskolin-stimulated intracellular cAMP accumulation measured after 30 mins by Glosensor assay. The format is cell-based.
T2 sequence (P21554 whole entry): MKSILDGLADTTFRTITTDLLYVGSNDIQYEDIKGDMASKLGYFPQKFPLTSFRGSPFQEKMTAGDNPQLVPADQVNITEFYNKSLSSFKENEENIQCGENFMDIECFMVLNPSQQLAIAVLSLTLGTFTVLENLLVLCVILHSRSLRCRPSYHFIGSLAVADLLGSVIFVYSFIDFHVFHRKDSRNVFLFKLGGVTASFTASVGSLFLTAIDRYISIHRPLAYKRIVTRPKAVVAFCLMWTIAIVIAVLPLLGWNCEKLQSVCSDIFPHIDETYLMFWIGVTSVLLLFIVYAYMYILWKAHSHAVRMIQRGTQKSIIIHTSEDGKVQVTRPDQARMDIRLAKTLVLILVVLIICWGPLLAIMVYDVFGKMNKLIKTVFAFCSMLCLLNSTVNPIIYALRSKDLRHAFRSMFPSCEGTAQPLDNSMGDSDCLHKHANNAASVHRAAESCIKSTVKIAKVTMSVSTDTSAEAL
The target of experiment [3] is T1, Cannabinoid receptor 2. The experiment is described as follows: Agonist activity at human CB2 receptor expressed in CHO cells assessed as inhibition of forskolin-stimulated intracellular cAMP accumulation measured after 30 mins by Glosensor assay relative to control. In kind it is functional, cell-based. The conditions noted are these: filed as agonist.
The next experiment is filed under the species Homo sapiens. The experiment is described as follows: Selectivity ratio of EC50 for agonist activity at human CB1 receptor expressed in CHO cells to EC50 for agonist activity at human CB2 receptor expressed in CHO cells. The format is cell-based.
The target in experiment [4] is T1, Cannabinoid receptor 2. The experiment is described as follows: Inverse agonist activity at human CB2 receptor expressed in CHO cells assessed as forskolin-stimulated intracellular cAMP accumulation measured after 30 mins by Glosensor assay. The format is functional, cell-based.
For experiment [5], the target named is T2, Cannabinoid receptor 1. Description: Inverse agonist activity at human CB1 receptor expressed in CHO cells assessed as forskolin-stimulated intracellular cAMP accumulation measured after 30 mins by Glosensor assay. The format is cell-based.

T1 sequence (P34972 whole entry): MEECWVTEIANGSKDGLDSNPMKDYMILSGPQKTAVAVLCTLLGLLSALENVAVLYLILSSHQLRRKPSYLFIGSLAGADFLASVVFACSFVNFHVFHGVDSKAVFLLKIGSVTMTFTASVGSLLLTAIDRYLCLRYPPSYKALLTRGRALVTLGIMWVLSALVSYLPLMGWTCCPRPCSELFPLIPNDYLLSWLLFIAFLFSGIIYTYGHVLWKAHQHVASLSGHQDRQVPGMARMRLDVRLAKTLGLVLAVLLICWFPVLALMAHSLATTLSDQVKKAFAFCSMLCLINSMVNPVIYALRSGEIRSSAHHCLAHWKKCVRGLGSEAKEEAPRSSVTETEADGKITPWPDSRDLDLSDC

Regarding `O=C1CC(c2nc(-c3ccc(F)c4cn[nH]c34)no2)CCCN1c1ccc(C(F)(F)F)cc1` (centres undefined), the EC50 on Cannabinoid receptor 2 [1] and at Cannabinoid receptor 1 [2] was more than 10 µM each time.

For the compound `COc1cc(F)ccc1-c1noc(C2CCCN(c3ccc(F)cc3)C(=O)C2)n1` (centres undefined), the EC50 (commonly the concentration giving half of the maximal effect) was 0.445 µM on Cannabinoid receptor 2 [1] and more than 10 µM at Cannabinoid receptor 1 [2]. Moreover, on Cannabinoid receptor 2 [3], the Emax (commonly the size of the effect at its maximum, as opposed to the concentration needed) turned out to be 91%.

With `O=C1CC(c2nc(-c3ccccc3)no2)CCN1c1ccc(F)cc1` (centres undefined), the EC50 at Cannabinoid receptor 2 [1] and at Cannabinoid receptor 1 [2] was more than 10 µM throughout.

Turning to `Cc1ccc(N2CCCC(c3nc(-c4ccc(F)c5cn[nH]c45)no3)CC2=O)cc1` (centres undefined), the results for the EC50 on Cannabinoid receptor 2 [1] and on Cannabinoid receptor 1 [2] were 1.35 µM and more than 10 µM, respectively. Moreover, the Emax at Cannabinoid receptor 2 [3] turned out to be 82%.

In the case of `O=C1CC(c2nc(-c3ccc(F)c4cn[nH]c34)no2)CCCN1c1cccc(F)c1` (centres undefined), the EC50 was 1.31 µM at Cannabinoid receptor 2 [1] and more than 10 µM at Cannabinoid receptor 1 [2]. In addition, the Emax at Cannabinoid receptor 2 [3] is 79%.

Turning to `O=C1C=C(c2nc(-c3ccccc3)no2)CCCN1c1ccc(F)cc1`, the EC50 at Cannabinoid receptor 2 [1] and at Cannabinoid receptor 1 [2] was more than 10 µM throughout.

On to `O=C1CC(c2nc(-c3ccc(F)cc3C(F)(F)F)no2)CCCN1c1ccc(F)cc1` (centres undefined), for which the EC50 at Cannabinoid receptor 2 [1] and on Cannabinoid receptor 1 [2] was more than 10 µM in each case.

Take `O=C1CC(c2nc(-c3ccc(F)cc3F)no2)CCCN1c1ccc(F)cc1` (centres undefined): the EC50 at Cannabinoid receptor 2 [1] and on Cannabinoid receptor 1 [2] was more than 10 µM each time.

With `O=C(c1ccc(F)cc1)N1CC(c2nc(-c3ccccc3)no2)C1`, the EC50 at Cannabinoid receptor 2 [1] and at Cannabinoid receptor 1 [2] was more than 10 µM each time.

Regarding `O=C1CC(c2nc(-c3ccc(F)c4cc[nH]c34)no2)CCCN1c1ccc(F)cc1` (centres undefined), the values for the EC50 at Cannabinoid receptor 2 [1] and on Cannabinoid receptor 1 [2] were 0.449 µM and more than 10 µM, respectively. Besides, on Cannabinoid receptor 2 [3], the Emax was determined as 123%.

Consider `O=C1CC(c2nc(-c3ccc(F)c4cn[nH]c34)no2)CCCN1c1ccc(F)c(F)c1` (centres undefined), for which the figures for the EC50 at Cannabinoid receptor 2 [1] and on Cannabinoid receptor 1 [2] were 0.318 µM and more than 10 µM, respectively. For the same compound, the Emax on Cannabinoid receptor 2 [3] turned out to be 81%.

Consider `O=C1CC(c2nc(-c3ccc(F)cc3)no2)CCCN1c1ccc(F)cc1` (centres undefined), for which the EC50 is 1.39 µM on Cannabinoid receptor 2 [1] and more than 10 µM on Cannabinoid receptor 1 [2]. The Emax on Cannabinoid receptor 2 [3] was 91%.

In the case of `O=C1CC(c2nc(-c3ccc(F)cn3)no2)CCCN1c1ccc(F)cc1` (centres undefined), the EC50 at Cannabinoid receptor 2 [1] and on Cannabinoid receptor 1 [2] was more than 10 µM in each case.

For `O=C1CC(c2nc(Cc3ccccc3F)no2)CCCN1c1ccc(F)cc1` (centres undefined), the EC50 at Cannabinoid receptor 2 [1] and on Cannabinoid receptor 1 [2] was more than 10 µM each time.

Consider `O=C(c1ccc(F)cc1)N1CC2(CC(c3nc(-c4ccccc4)no3)C2)C1`, for which the EC50 on Cannabinoid receptor 2 [1] and on Cannabinoid receptor 1 [2] was more than 10 µM in each case.

Consider `O=C1CC(c2nc(-c3ccccc3)no2)CCCN1c1ccc(F)cc1` (centres undefined), for which the EC50 at Cannabinoid receptor 2 [1] is 2.81 µM; on Cannabinoid receptor 1 [2], more than 30 µM. In addition, the Ratio EC50 in the experiment listed under Homo sapiens is more than 10. Moreover, at Cannabinoid receptor 2 [3], the Emax amounted to 78%.

As for `COc1ccc(N2CCCC(c3nc(-c4ccc(F)c5cn[nH]c45)no3)CC2=O)cc1` (centres undefined), the EC50 was 1.21 µM at Cannabinoid receptor 2 [1] and more than 10 µM on Cannabinoid receptor 1 [2]. The maximal effect (Emax) on Cannabinoid receptor 2 [3] was found to be 101%.

As for `O=C1C[C@H](c2nc(-c3ccc(F)c4cn[nH]c34)no2)CCCN1c1ccc(F)cc1`, the EC50 at Cannabinoid receptor 2 [1] was 0.0348 µM; at Cannabinoid receptor 1 [2] it was more than 30 µM. For the same compound, the Emax at Cannabinoid receptor 2 [3] was 102%.

As to `O=C1CC(c2nc(-c3ccccc3F)no2)CCCN1c1ccc(F)cc1` (centres undefined), the EC50 on Cannabinoid receptor 2 [1] and at Cannabinoid receptor 1 [2] was more than 10 µM throughout.

Regarding `O=C1CC(c2nc(-c3ccc(F)c4cn[nH]c34)no2)CCCN1c1cccc(F)c1F` (centres undefined), the EC50 on Cannabinoid receptor 2 [1] is 0.332 µM; at Cannabinoid receptor 1 [2] it was more than 10 µM. Besides, the Emax at Cannabinoid receptor 2 [3] was found to be 92%.

Consider `O=C1CC(c2nc(-c3ccc(F)c4cn[nH]c34)no2)CCCN1c1ccc(OC(F)(F)F)cc1` (centres undefined), for which the EC50 at Cannabinoid receptor 2 [1] is 2.05 µM; at Cannabinoid receptor 1 [2] it was more than 10 µM. Further, the Emax at Cannabinoid receptor 2 [3] was 74%.

In the case of `O=C1CC(c2nc(-c3ccc(F)c4cn[nH]c34)no2)CCCN1c1ccc(F)cc1F` (centres undefined), the EC50 at Cannabinoid receptor 2 [1] is 0.11 µM; at Cannabinoid receptor 1 [2], more than 10 µM. The Emax on Cannabinoid receptor 2 [3] stood at 100%.

For the compound `O=C1CC(c2nc(-c3ccc(F)cc3Cl)no2)CCCN1c1ccc(F)cc1` (centres undefined), the EC50 at Cannabinoid receptor 2 [1] and on Cannabinoid receptor 1 [2] was more than 10 µM each time.

Consider `CC(=O)c1ccc(N2CCCC(c3nc(-c4ccc(F)c5cn[nH]c45)no3)CC2=O)cc1` (centres undefined), for which the half-maximal effective concentration (EC50) at Cannabinoid receptor 2 [1] and on Cannabinoid receptor 1 [2] was more than 10 µM each time.

Regarding `O=C1CC(c2nc(-c3ccc(F)c4cn[nH]c34)no2)CCCN1c1ccccc1F` (centres undefined), the EC50 was 0.0454 µM at Cannabinoid receptor 2 [1] and more than 10 µM on Cannabinoid receptor 1 [2]. Moreover, the Emax on Cannabinoid receptor 2 [3] worked out at 93%.

`O=C1CC(c2nc(-c3ccc(F)c4cn[nH]c34)no2)CCCN1c1ccc(Cl)cc1` (centres undefined): the concentration for a half-maximal effect (EC50) was 0.805 µM on Cannabinoid receptor 2 [1] and more than 10 µM at Cannabinoid receptor 1 [2]. Besides, the Emax on Cannabinoid receptor 2 [3] was determined as 112%.

As for `O=C1C[C@@H](c2nc(-c3ccc(F)c4cn[nH]c34)no2)CCCN1c1ccc(F)cc1`, the EC50 at Cannabinoid receptor 2 [1] is 0.0587 µM; at Cannabinoid receptor 1 [2], more than 30 µM. In addition, at Cannabinoid receptor 2 [3], the Emax was found to be 80%.

Regarding `O=C1CC(c2nc(-c3ccc(F)c4ccccc34)no2)CCCN1c1ccc(F)cc1` (centres undefined), the EC50 was 1.21 µM at Cannabinoid receptor 2 [1] and more than 10 µM at Cannabinoid receptor 1 [2]. Also, the Emax at Cannabinoid receptor 2 [3] is 97%.

Take `Cc1cc(F)ccc1-c1noc(C2CCCN(c3ccc(F)cc3)C(=O)C2)n1` (centres undefined): the EC50 at Cannabinoid receptor 2 [1] was 3.3 µM; at Cannabinoid receptor 1 [2] it was more than 10 µM.

Consider `O=C1CC(c2nc(-c3ccc(F)c4cn[nH]c34)no2)CCCN1c1ccccc1` (centres undefined), for which the EC50 was 0.3 µM on Cannabinoid receptor 2 [1] and more than 10 µM at Cannabinoid receptor 1 [2]. Besides, the Emax at Cannabinoid receptor 2 [3] was found to be 88%.

`O=C1CC(c2nc(-c3ccc(Cl)cc3)no2)CCCN1c1ccc(F)cc1` (centres undefined): the EC50 on Cannabinoid receptor 2 [1] and on Cannabinoid receptor 1 [2] was more than 10 µM in each case.

Turning to `O=C1CC(c2nc(-c3cccc(F)c3)no2)CCCN1c1ccc(F)cc1` (centres undefined), the 50% effective concentration (EC50) is 2.12 µM on Cannabinoid receptor 2 [1] and more than 10 µM at Cannabinoid receptor 1 [2]. Also, the Emax at Cannabinoid receptor 2 [3] was found to be 97%.

`Fc1ccc(Nc2cccc(-c3nc(-c4ccccc4)no3)c2)cc1`: the concentration for a half-maximal effect (EC50) at Cannabinoid receptor 2 [1] and on Cannabinoid receptor 1 [2] was more than 10 µM each time.

Regarding `CN1CCCC(c2nc(-c3ccc(F)c4cn[nH]c34)no2)CC1=O` (centres undefined), the EC50 at Cannabinoid receptor 2 [1] and on Cannabinoid receptor 1 [2] was more than 10 µM in each case.

Regarding `O=C1CC(c2nc(Cc3cccc(F)c3)no2)CCCN1c1ccc(F)cc1` (centres undefined), the EC50 at Cannabinoid receptor 2 [1] and on Cannabinoid receptor 1 [2] was more than 10 µM throughout.

With `O=C1CC(c2nc(Cc3ccccc3)no2)CCCN1c1ccc(F)cc1` (centres undefined), the EC50 at Cannabinoid receptor 2 [1] and on Cannabinoid receptor 1 [2] was more than 10 µM in each case.

Take `O=C(c1ccc(F)cc1)N1CCC(c2nc(-c3ccccc3)no2)CC1`: the EC50 at Cannabinoid receptor 2 [1] and on Cannabinoid receptor 1 [2] was more than 10 µM each time.

In the case of `Fc1ccc(Nc2ccc(-c3nc(-c4ccccc4)no3)cc2)cc1`, the half-maximal effective concentration (EC50) at Cannabinoid receptor 2 [1] and on Cannabinoid receptor 1 [2] was more than 10 µM in each case.

Take `O=C(NCCc1nc(-c2ccccc2)no1)c1ccc(F)cc1`: the EC50 at Cannabinoid receptor 1 [2] and on Cannabinoid receptor 2 [4] was more than 10 µM throughout.

As to `O=C1CC(c2nc(Cc3ccc(F)cc3)no2)CCCN1c1ccc(F)cc1` (centres undefined), the EC50 at Cannabinoid receptor 2 [1] and on Cannabinoid receptor 1 [2] was more than 10 µM in each case.

With `O=C1CC(c2nc(-c3ccc(F)c4cn[nH]c34)no2)CCCN1c1cc(F)c(F)c(F)c1` (centres undefined), the EC50 on Cannabinoid receptor 2 [1] is 0.338 µM; on Cannabinoid receptor 1 [5], more than 10 µM. Besides, on Cannabinoid receptor 2 [3], the maximal effect (Emax) came out at 102%.

As to `O=C1CC(c2nc(-c3ccncc3)no2)CCCN1c1ccc(F)cc1` (centres undefined), the EC50 at Cannabinoid receptor 2 [1] and on Cannabinoid receptor 1 [2] was more than 10 µM each time.
